{"source": "patent US20250302822A1", "about": "“COMPOSITION FOR ENHANCING ANTICANCER EFFECT OF MEK INHIBITOR COMPRISING ARIPIPRAZOLE AS ACTIVE INGREDIENT” (KOREA INSTITUTE OF RADIOLOGICAL & MEDICAL SCIENCES, priority 2022, published 2025)", "key": {"[1]": {"system": "NOXA", "experiment": "NOXA protein expression in COLO 205 cells via Western blot", "format": "cell-based", "conditions": "eight hours after treatment, Western blot (FIG. 1)", "experimental": "(§1) To identify an effect of aripiprazole on the expression of NOXA and PUMA proteins in cancer cells, COLO 205 cells were treated with aripiprazole. Eight hours later, proteins were extracted from cells after washing with PBS, and a level of NOXA and PUMA expression was checked via Western blot."}, "[2]": {"system": "PUMA", "experiment": "PUMA protein expression in COLO 205 cells via Western blot", "format": "cell-based", "conditions": "eight hours after treatment, Western blot (FIG. 1)", "experimental": "as §1"}}, "data": [{"smiles": "O=C1CCc2ccc(OCCCCN3CCN(c4cccc(Cl)c4Cl)CC3)cc2N1", "note": "[aripiprazole]", "values": [{"measurement": "expression of NOXA protein", "setting": "[1]", "result": "increased"}, {"measurement": "expression of PUMA protein", "setting": "[2]", "result": "increased"}]}]}
